For orientation: ED50 means the midpoint of the dose-response relation. Low readings indicate greater potency, high ones weaker potency. By melting point is commonly meant the temperature, or range, at which the solid turns liquid.

One series concerns CK-1 male mice. Nature of the series: Climbing mouse assay (apomorphine-induced climbing). Type of series: in vivo. As to conditions: Mus musculus; ip; apomorphine 1.5 mg/kg sc challenge; climbing score vs control group set to 100%; linear regression. The method, then:
Antipsychotic activity is determined in the climbing mice assay by a method similar to those described by P. Protais, et al., Psychopharmacol., 50:1 (1976) and B. Costall, Eur. J. Pharmacol., 50:39 (1978).
Subject […] male mice (23-27 grams) are group-housed under standard laboratory conditions. The mice are individually placed in wire mesh stick cages (4″×10″) and are allowed one hour for adaption and exploration of the new environment. Then apomorphine is injected subcutaneously at 1.5 mg/kg a dose causing climbing in all subjects for 30 minutes.
For evaluation of climbing, 3 readings are taken at 10. 20, and 30 minutes after apomorphine administration according to the following scale:
Mice consistently climbing before the injection of apomorphine are discarded.
With full-developed apomorphine climbing, the animals are hanging on to the cage walls, rather motionless, over long periods of time. By contrast, climbs due to mere motor stimulation usually only last a few seconds.
The climbing scores are individually totaled (maximal score: 6 per mouse over 3readings) and the total score of the control group (vehicle intraperitoneally-apomorphine subcutaneously) is set to 100%.
The compound `COc1cc(C(C)O)ccc1OCCCCN1CCC(c2noc3ccccc23)CC1` (stereo not drawn) [1-[4-[4-[4-(1,2-Benzisoxazol-3-yl)-1-piperidinyl]butoxy]-3-methoxyphenyl]ethanol] registered an ED50 of 1.6 mg/kg.

The series is the same for the next values; noted with them: apomorphine 1.5 mg/kg sc challenge, climbing score vs control group set to 100%, linear regression.
As for “6-Fluoro-3-[1-[3-[(isoquinol-5-yl)oxy]propyl]-4-piperidinyl]-1,2-benzisoxazole sesquifumarate”, the “CLIMBING MOUSE ASSAY (ED50 mg/kg, ip)” value amounted to 0.172 mg/kg. Same read-out and setting: next, `COc1cc(C(C)=O)ccc1OCCCCN1CCC(c2noc3cc(F)ccc23)CC1` [1-[4-[4-[4-(6-Fluoro-1,2-benzisoxazol-3-yl)-1-piperidinyl)butoxy]-3-methoxyohenylethanone]: 0.68 mg/kg; `COc1cc(C(C)=O)ccc1OCCCN1CCC(c2noc3cc(F)ccc23)CC1` [1-[4-[3-[4-(6-Fluoro-1,2-benzisoxazol-3-yl)-1-piperadinyl]propoxy]-3-methoxyphenyl]ethanone]: 0.095 mg/kg; `CC(=O)c1ccc(CCCCN2CCC(c3noc4cc(F)ccc34)CC2)cc1` [1-[4-(4′-Acetophenyl)butyl]-4-(6-fluoro-1,2-benzisoxazol-3-yl)piperidine]: 0.34 mg/kg. The same measure, in the same setting: the result for `Fc1ccc2c(C3CCN(CCC4COc5ccccc5O4)CC3)noc2c1` (stereo not drawn) [2-[4-(6-Fluoro-1,2-benzisoxazol-3-yl)-1-piperidinyl]ethyl]-1,4-benzodioxan] reads 0.29 mg/kg. Take `COc1cc(C(C)=O)ccc1OCCCN1CCC(c2noc3ccccc23)CC1` [1-[4-[3-[4-(1,2-Benzisoxazol-3-yl)-1-piperadinyl]propoxyl]-3-methoxyphenyl]ethanone]: the “CLIMBING MOUSE ASSAY (ED50 mg/kg, ip)” value is on record as 0.67 mg/kg.

The subject of a further series is mice. Nature of the series: Phenyl p-quinone writhing assay in mice. It is filed as in vivo. As to conditions: dose effecting approximately 50% inhibition of writhing in mice. The text has this:
Some of the compounds of the present invention are also useful as analgetics due so their ability to alleviate pain in mammals. […] Exptl. Biol. Med., 95:729 (1937). Thus, for instance the subcutaneous dose effecting an approximately 50% inhibition of writhing (ED50) in mice produced in this assay is as shown in Table 2.
Background: Writhing tests count abdominal constrictions after an irritant is injected.
Take `COc1cc(C(C)=O)ccc1OCCCN1CCC(c2noc3cc(F)ccc23)CC1` [1-[4-[3-[4-(6-Fluoro-1,2-benzisoxazol-3-yl)-1-piperadinyl]propoxy]-3-methoxyphenyl]ethanone]: the “INHIBITION OF PHENYLQUINONE INDUCED WRITHING ED50 mg/kg, sc” value was 0.03 mg/kg. Same read-out and setting: next, `COc1cc(C(C)=O)ccc1OCCCN1CCC(c2noc3ccccc23)CC1` [1-[4-[3-[4-(1,2-Benzisoxazol-3-yl)-1-piperadinyl]propoxyl]-3-methoxyphenyl]ethanone]: 0.17 mg/kg.

Test system in the next series: not given
Assay: not given
Settings: not given
With `COc1cc(C(C)=O)ccc1OC/C=C\CN1CCC(c2noc3cc(F)ccc23)CC1` [(Z)-1-[4-[[4-[4-(6-Fluoro-1,2-benzisoxazol-3-yl)-1-piperidinyl]-2-butenyl]oxy]-3-methoxyphenyl]ethanone], the melting point lay in the range of 57 to 59 °C. Same read-out and setting: the result for `COc1cc(C(C)=O)ccc1OCCN1CCN(c2nsc3ccccc23)CC1` [Example 39, 1-[4-[2-[4-(1,2-Benzisothiazol-3-yl)-1-piperazinyl]ethoxy]-3-methoxyphenyl]ethanone] reads 98 to 100 °C. Still for that read-out and setting: next, `COc1cc(C(C)=O)ccc1OCCN1CCN(c2n[nH]c3cc(Cl)ccc23)CC1` [Example 41, 1-[4-[2-[4-(6-Chloro-1H-indazol-3-yl)-1-piperazinyl]ethoxy]-3-methoxyphenyl]ethanone]: 154 to 156 °C; `CCc1ccc(OCCCN2CCC(c3noc4cc(F)ccc34)CC2)cc1OC.Cl`: 150 to 152 °C; `COc1cc(C(C)=O)ccc1OCCCCN1CCC(c2n[nH]c3ccccc23)CC1` [Example 20, 1-[4-[4-[4(1H-indazol-3-yl)-1-piperidinyl]butoxy]-3-methoxyphenyl]ethanone]: 133 to 135 °C.

`COc1cc(C(C)=O)ccc1OCCCCN1CCC(c2nsc3ccccc23)CC1` [Example 46, 1-[4-[4-[4-(1,2-Benzisothiazol-3-yl)-1-piperidinyl]butoxy]-3-methoxyphenyl]ethanone]: the melting point lay in the range of 78 to 80 °C. Still for that read-out and setting: the result for `COc1cc(C(C)=O)ccc1OCCCN1CCC(c2n[nH]c3cc(F)ccc23)CC1` [Example 28, 1-[4-[3-[4-(6-Fluoro-1H-indazol-3-yl)-1-piperidinyl]-propoxy]-3-methoxyphenyl]ethanone] reads 202 to 204 °C; that for `Fc1ccc2c(C3CCN(CCN4CCOCC4)CC3)noc2c1` [Example 116, N-[2-[4-(6-Fluoro-1,2-benzisoxazol-3-yl)-1-piperidinyl]ethyl]morpholine], 131 to 132 °C. `COc1cc(C(C)=O)ccc1OCCCN1CCC(c2nsc3cc(F)ccc23)CC1.Cl` [1-[4-[3-[4-(6-Fluoro-1,2-benzisothiazol-3-yl)-1-piperidinyl]propoxy]-3-methoxyphenyl]ethanone hydrochloride] gave a melting point of 221 to 223 °C. The same measure, in the same setting: the result for `COc1cc(C(C)=O)ccc1OCCCN1CCC(c2nsc3ccccc23)CC1` [Example 10, 1-[4-[3-[4-(1,2-Benzisothiazol-3-yl)-1-piperidinyl]-propoxy]-3-methoxyphenyl]ethanone] reads 93 to 96 °C; that for `COc1cc(C(C)O)ccc1OCCCCN1CCC(c2noc3ccccc23)CC1` (stereo not drawn) [1-[4-[4-[4-(1,2-Benzisoxazol-3-yl)-1-piperidinyl]butoxy]-3-methoxyphenyl]ethanol], 99 to 101 °C; that for `CC(=O)OC[C@H](C)CN1CCC(c2noc3cc(F)ccc23)CC1.O=C(O)/C=C/C(=O)O`, 118 to 120 °C. In turn, `CCCCCCCCCC(=O)NCCN1CCC(c2noc3cc(F)ccc23)CC1.O=C(O)/C=C/C(=O)O` came in with a melting point of 108 to 110 °C. The same measure, in the same setting: the result for `OCCCN1CCC(c2noc3cc(F)ccc23)CC1` [6-Fluoro-3-[1-(3-hydroxypropyl)-4-piperidinyl]-1,2-benzisoxazole] reads 140 to 142 °C; that for `CC(=O)c1ccc(NCCCN2CCC(c3noc4cc(F)ccc34)CC2)c(O)c1` [Example 111, 1-[4-[3-[4-(6-Fluoro-1,2-benzisoxazol-3-yl)-1-piperidinyl]propylamino]-3-hydroxyphenyl]ethanone], 150 to 152 °C; that for `Fc1ccc2c(C3CCN(CCCCBr)CC3)noc2c1` [Example 114, 4-[4-(6-Fluoro-1,2-benzisoxazol-3-yl)-1-piperidinyl]butyl bromide], 243 to 245 °C. Still for that read-out and setting: next, `COCCN1CCC(c2noc3cc(F)ccc23)CC1.O=C(O)/C=C/C(=O)O`: 157 to 158 °C; `CCCCCCCCCC(=O)OCCCCN1CCC(c2noc3cc(F)ccc23)CC1.O=C(O)/C=C/C(=O)O` [4-[4-(6-Fluoro-1,2-benzisoxazol-3-yl)-1-piperidinyl]butyl decanoate fumarate]: 109 to 110 °C; `CC(C)(CO)CN1CCC(c2noc3cc(F)ccc23)CC1.O=C(O)/C=C/C(=O)O`: 144 to 145 °C. On the same count and under the same terms, next, `Cl.O=C1[C@H]2CCCC[C@H]2C(=O)N1CCCCN1CCC(c2noc3cc(F)ccc23)CC1`: 229 to 231 °C; `CC(=O)Nc1ccccc1OCCCN1CCC(c2noc3cc(F)ccc23)CC1` [Example 61, N-[2-[3-[4-(6-fluoro-1,2-benzoisoxazol-3-yl)-1-piperidinyl]propoxy]phenyl]acetamide]: 118 to 120 °C.

The record behind these values is USRE39198E1, “Heteroarylpiperidines, pyrrolidines and piperazines and their use as antipsychotics and analgesics” (Aventis Pharmaceuticals Inc., priority 1989, dated 2006).
